According to PubChem BioAssay (NCI):
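Briefly, cells in 96-well plates were exposed to five compound concentrations for 48 h, and endpoints were estimated by linear interpolation. GI50 marks 50% less growth. TGI is the concentration that stops growth completely.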

How the values were obtained:
Experiment in all cases: growth of human tumour cells (NCI), 48 h
[1] = system: NCI-H226 lung
[2] = system: NCI-H23 lung
[3] = system: NCI-H460 lung
[4] = system: NCI-H522 lung
[5] = system: NCI/ADR-RES ovarian
[6] = system: OVCAR-3 ovarian
[7] = system: OVCAR-4 ovarian
[8] = system: OVCAR-5 ovarian
[9] = system: OVCAR-8 ovarian
[10] = system: PC-3 prostate
[11] = system: RPMI-8226 leukemia
[12] = system: RXF 393 renal
[13] = system: SF-268 CNS
[14] = system: SF-295 CNS
[15] = system: SF-539 CNS
[16] = system: SK-MEL-2 melanoma
[17] = system: SK-MEL-28 melanoma
[18] = system: SK-MEL-5 melanoma
[19] = system: SK-OV-3 ovarian
[20] = system: SN12C renal
[21] = system: SNB-19 CNS
[22] = system: SNB-75 CNS
[23] = system: SW-620 colon
[24] = system: T-47D breast
[25] = system: TK-10 renal
[26] = system: U251 CNS
[27] = system: UACC-257 melanoma
[28] = system: UACC-62 melanoma

For `COc1cccc(-c2ccc(/C=N/NC(=O)c3[nH]c4ccc(Br)cc4c3-c3ccccc3)o2)c1`, the GI50 [1] was 10.2 µM, the TGI [1] was 50.6 µM and the GI50 [2] was 5.23 µM. The TGI [2] was 40.3 µM, the GI50 [3] was 3.26 µM and the TGI [3] was 18 µM. The GI50 [4] was 2 µM, the TGI [4] was 4.72 µM and the GI50 [5] was 2.4 µM. It also gave a TGI [5] of 6.26 µM, a GI50 [6] of 2.48 µM and a TGI [6] of 8.6 µM. It also gave a GI50 [7] of 26.2 µM, a TGI [7] of over 100 µM and a GI50 [8] of 4.31 µM. The TGI [8] was 44.9 µM, the GI50 [9] was 2.39 µM and the TGI [9] was 5.57 µM. For the same compound, the GI50 [10] was 3.96 µM, the TGI [10] was 75 µM and the GI50 [11] was 3.05 µM. It also gave a TGI [11] of 10.9 µM, a GI50 [12] of 2.37 µM and a TGI [12] of 5.93 µM. The GI50 [13] was 4.94 µM, the TGI [13] was 48.3 µM and the GI50 [14] was 3.16 µM. The TGI [14] was 14.1 µM, the GI50 [15] was 2.35 µM and the TGI [15] was 5.51 µM. For the same compound, the GI50 [16] was 3.04 µM, the TGI [16] was 9.76 µM and the GI50 [17] was 7.18 µM. For the same compound, the TGI [17] was 52.9 µM, the GI50 [18] was 2.94 µM and the TGI [18] was 11.3 µM. It also gave a GI50 [19] of 3.61 µM, a TGI [19] of 36.2 µM and a GI50 [20] of 4.13 µM. For the same compound, the TGI [20] was 18.9 µM, the GI50 [21] was 3.84 µM and the TGI [21] was 20.2 µM. For the same compound, the GI50 [22] was 2.87 µM, the TGI [22] was 15.1 µM and the GI50 [23] was 4.6 µM. It also gave a TGI [23] of over 100 µM, a GI50 [24] of 7.94 µM and a TGI [24] of over 100 µM. For the same compound, the GI50 [25] was 29.1 µM, the TGI [25] was over 100 µM and the GI50 [26] was 3.44 µM. For the same compound, the TGI [26] was 12.7 µM, the GI50 [27] was 6.86 µM and the TGI [27] was 69.2 µM. It also gave a GI50 [28] of 4.17 µM and a TGI [28] of over 100 µM.
